The target of the test is NaV1.9 (Rattus norvegicus, UniProt O88457). The test can be described thus: whole-cell patch clamp of NaV1.9-mediated current. It is filed as cell-based. (The patch-clamp technique gives a direct electrical read-out from membranes.)
Chain of NaV1.9 (O88457 whole entry): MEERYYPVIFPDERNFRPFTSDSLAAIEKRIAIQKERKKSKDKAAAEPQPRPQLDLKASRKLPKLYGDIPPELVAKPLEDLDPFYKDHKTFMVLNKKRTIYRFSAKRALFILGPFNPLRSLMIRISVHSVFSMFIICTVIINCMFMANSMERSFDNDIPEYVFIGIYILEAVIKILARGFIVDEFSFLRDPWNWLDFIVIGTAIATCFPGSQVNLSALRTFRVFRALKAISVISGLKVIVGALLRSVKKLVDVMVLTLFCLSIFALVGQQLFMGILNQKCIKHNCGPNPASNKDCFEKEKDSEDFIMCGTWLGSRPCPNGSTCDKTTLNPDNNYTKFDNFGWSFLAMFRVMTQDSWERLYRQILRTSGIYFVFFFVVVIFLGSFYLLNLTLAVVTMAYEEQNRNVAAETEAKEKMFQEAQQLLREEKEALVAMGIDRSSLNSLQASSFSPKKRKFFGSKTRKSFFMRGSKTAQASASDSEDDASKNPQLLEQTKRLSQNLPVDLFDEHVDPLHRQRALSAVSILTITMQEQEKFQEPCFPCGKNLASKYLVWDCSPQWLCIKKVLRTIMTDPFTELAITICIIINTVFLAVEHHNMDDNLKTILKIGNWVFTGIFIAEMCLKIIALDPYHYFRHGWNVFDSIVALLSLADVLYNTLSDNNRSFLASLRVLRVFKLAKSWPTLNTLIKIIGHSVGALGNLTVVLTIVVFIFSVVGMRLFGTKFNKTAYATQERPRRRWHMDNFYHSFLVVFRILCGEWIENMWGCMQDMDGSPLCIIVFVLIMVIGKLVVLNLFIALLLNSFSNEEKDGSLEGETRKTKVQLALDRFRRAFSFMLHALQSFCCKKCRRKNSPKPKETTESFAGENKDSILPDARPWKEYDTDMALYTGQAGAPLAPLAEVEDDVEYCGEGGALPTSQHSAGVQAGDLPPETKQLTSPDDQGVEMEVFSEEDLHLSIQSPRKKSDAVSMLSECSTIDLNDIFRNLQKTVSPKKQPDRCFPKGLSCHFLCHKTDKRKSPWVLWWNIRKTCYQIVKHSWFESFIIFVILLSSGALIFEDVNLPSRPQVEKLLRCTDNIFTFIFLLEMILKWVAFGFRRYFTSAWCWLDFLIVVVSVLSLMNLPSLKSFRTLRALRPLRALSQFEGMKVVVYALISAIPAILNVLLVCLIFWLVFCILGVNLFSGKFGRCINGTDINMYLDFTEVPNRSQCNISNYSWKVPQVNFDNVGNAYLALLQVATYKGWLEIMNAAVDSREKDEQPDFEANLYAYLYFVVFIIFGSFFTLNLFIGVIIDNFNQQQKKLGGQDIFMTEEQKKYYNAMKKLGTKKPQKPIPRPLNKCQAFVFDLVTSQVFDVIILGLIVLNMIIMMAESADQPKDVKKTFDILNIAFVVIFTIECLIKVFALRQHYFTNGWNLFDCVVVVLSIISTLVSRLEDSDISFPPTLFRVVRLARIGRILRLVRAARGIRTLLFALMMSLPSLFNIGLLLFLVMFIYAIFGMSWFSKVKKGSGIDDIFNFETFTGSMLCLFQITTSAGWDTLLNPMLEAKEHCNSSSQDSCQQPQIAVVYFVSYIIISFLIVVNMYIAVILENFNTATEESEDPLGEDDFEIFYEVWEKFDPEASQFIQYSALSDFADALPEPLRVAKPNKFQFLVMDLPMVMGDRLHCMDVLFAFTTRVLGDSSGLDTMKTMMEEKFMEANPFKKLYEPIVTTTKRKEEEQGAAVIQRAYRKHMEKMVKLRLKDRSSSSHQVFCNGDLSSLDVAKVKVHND

The IC50 is the concentration at which inhibition is half-maximal. For the compound `C[C@]12CC[C@H](O)CC1=CC[C@@H]1[C@@H]2CC[C@]2(C)C(=O)CC[C@@H]12` [DHEA, dehydroepiandrosterone], it took 49.2 µM to reach half-maximal inhibition (IC50).

Values taken from publication PMC11863801 (The Journal of Headache and Pain, 2025).
